The values that follow come from patent US20130133650A1, “GAS-BASED TREATMENT FOR INFECTIVE DISEASE” (priority 2010, published 2013).

Molecules are shown by their SMILES.

One data set relates to Mycobacterium bovis BCG. The conditions noted are these: cited from earlier work.
The next data set has as its system M. bovis BCG. The format is cell-based, Mycobacterium bovis BCG. The conditions noted are these: jar flushed with gas, 1-24 hour (FIG. 5).
Data set [1] deals with THP-1 macrophage-like cells. Description: Viability of human macrophage-like cells following anaerobic shock (trypan blue exclusion). The format is cell-based. The conditions noted are these: uninfected differentiated THP-1 cells, various treatment times (FIG. 3(B)).
Description: THP-1 cells were grown and induced for differentiation as above. The monolayer of differentiated macrophage-like cells was dispersed by trypsinization, after which cell suspensions were transferred to Vacutainer tubes and shocked with anaerobic gas as described for bacterial cultures. At various times, 20-microliter aliquots of suspended cells (˜10^6 cells/ml) were mixed with an equal volume of Trypan Blue staining solution (0.4% Trypan blue, Sigma Chemicals CO., St. Louis, Mo.)). Total and blue cell numbers were determined by light microscopy using a hemocytometer.
Percent of white (live) cells was plotted relative to an untreated sample.
For data set [2] the following is noted: rabbit, in vivo.
Data set [3] relates to M. tuberculosis H37Rv inside THP-1 macrophage-like cells. The experiment in a line: Anaerobic shock of macrophage-like cells infected with M. tuberculosis, bacterial survival. The conditions noted are these: treatment for the indicated times (FIG. 3(A)).

As to `NCCN(CCN)/[N+]([O-])=N/O` [DETA-NO, diethylene-triamine-nitric oxide adduct], in the data set on Mycobacterium bovis BCG (pretreatment before anaerobic shock), the “effect of pretreatment on anaerobic shock-caused cell death” value was “not blocked”. The “duration of sustained growth arrest” value in the data set on Mycobacterium bovis BCG (single treatment) was 72 h.
In the case of `[HH]` [hydrogen], in the data set with M. bovis BCG, the “killing of bacteria on agar surface” value was “killed”.
Consider `[Ar]` [argon], for which, in data set [1], the “macrophage viability (trypan blue exclusion)” value is “slightly reduced viability at long treatment times”. For the same compound, the “side-effect of one-lung anaerobic shock” value in data set [2] is reported as “no obvious side-effect”. The “intracellular bacillary viability” value in data set [3] is “only reduced bacillary viability moderately”.
